The nature of the data set: solubility trial of sensates in propylene glycol/glycerol mixture. The conditions noted are these: PG:VG 70:30, sensate w/w % subtracted from PG (Symheat PV 1, WS-3 0.8, Ginger Extract 0.1 w/w %); one hour following addition of VG. It is filed as physicochemical. An excerpt: Formulations were produced containing propylene glycol (PG) and glycerol (VG) at a 70:30 ratio with the w/w % sensate addition subtracted from the w/w % of propylene glycol as is typical in the art.

As to `CCNC(=O)[C@@H]1C[C@H](C)CC[C@H]1C(C)C` (stereo in doubt) [WS-3, N-ethyl-5-methyl-2-propan-2-ylcyclohexane-1-carboxamide], the Soluble entry is “✓”.
